From PMC6928636, “Broad-Spectrum Amino Acid Transporters ClAAP3 and ClAAP6 Expressed in Watermelon Fruits” (International Journal of Molecular Sciences, 2019)
Where two headings read alike, the source gives them in different places.

Key:
Conditions in all cases: labelled compound; empty-vector values used to normalize
[1] = test system: T1, ClAAP6; test: [3H]Arg uptake into yeast […]Δ[…]α cells; type: cell-based, Citrullus lanatus
T1 construct: untagged; expressed in S. cerevisiae 22Δ10α lacking endogenous amino acid transporters

[2] = test system: T2, ClAAP3; test: [3H]Arg uptake into yeast […]Δ[…]α cells; type: cell-based, Citrullus lanatus
T2 construct: untagged; expressed in S. cerevisiae 22Δ10α lacking endogenous amino acid transporters

[3] = test system: ClAAP6
[4] = test system: ClAAP3

| Compound | Km [1] [µM] | Km [2] [µM] | Km [3] [µM] | Km [4] [µM] |
| --- | --- | --- | --- | --- |
| N=C(N)NCCC[C@H](N)C(=O)O [Arg] | 579 ± 24.1 | 54.1 ± 7.5 |  |  |
| O=C(O)[C@@H]1CCCN1 [Pro] |  |  | 74 ± 9.8 | 398 ± 48.6 |
